Data reported in patent US20110281807A1, “PLANT DISEASE CONTROL AGENT COMPRISING D-TAGATOSE AS ACTIVE INGREDIENT, AND PLANT DISEASE CONTROL METHOD” (NATIONAL UNIVERSITY CORPORATION KAGAWA UNIVERSITY, priority 2008, published 2011).
Counter-ions that a name gives are not always drawn. Like-named read-outs stand apart in the source and are kept apart here.

Experiments:
[1] = system: Pseudoperonospora cubensis; settings: for Preventive value: alone
Phytophthora infestans = test: whole plant or invertebrate; format: in vivo; settings: for Preventive value: alone
Pyricularia oryze = test: whole plant or invertebrate; format: in vivo; settings: for Preventive value: rice, compound alone; for pest or weed control at 10 ppm / pest or weed control at 250 ppm: Pyricularia, in Oryza sativa, 168 h, read-out: Preventive value
Pythium aphanidermatum = test: cucumber damping-off, pot test: soil drench of D-tagatose combined with fungicides; settings: for Preventive value: alone, 250 ppm, soil drench
Experimental: Five seeds of test plants (cucumber, variety: Sagami hanpaku) were sowed in a pot (5×5 cm), which contains infested soil with Pythium aphanidermatum (mycelium 100 g/1 L soil) and was covered with soil. D-Tagatose was diluted to 5000 ppm and the fungicides were diluted to the concentrations listed in table 18, with distilled water. The pot was drenched with 10 ml of the dilution. After 2 weeks, the disease severity of the test plants was observed and the effectiveness of test sample was judged. Tests were carried out in triplicate using 5 plants for each test set and the preventive value was calculated from the germination rate.

[2] = system: Pseudoperonospora cubensis; settings: for Preventive value: alone, curative
Experimental: Test plants (cucumber, variety: Sagami hanpaku) were seeded and grown until the one true leaf stage. And then, a sporangium suspension of Pseudoperonospora cubensis containing 1×10^3/ml were spraying for inoculation on the back side of the leaves of test plants and then put for 16 hours in an inoculation chamber (20° C. to 23° C.) to promote disease. For a curative test, the inoculated plants as described above were used.
D-Tagatose was diluted to 5000 ppm and the fungicides were diluted to the concentrations listed in table 15, with distilled water, and 10 ml of the dilution was sprayed. Seven days after inoculation the disease severity of the test plants was observed and the effectiveness of test sample was judged.

Plasmopara viticola = settings: for Preventive value: alone
Experimental: Test plants (variety: Neo Muscat) were seeded and grown until three leaves. D-Tagatose was diluted to 5000 ppm and the fungicides were diluted to the concentrations listed in table 16, with distilled water, and 10 ml of the dilution was sprayed on the plants. Three days after the spraying of the dilution, the plants were infected by spraying a sporangium suspension of Plasmopara viticola containing 1×10^3/ml and then put for 16 hours in an inoculation chamber (20° C. to 23° C.) to promote disease. The disease severity of the test plants was observed 7 days after inoculation, and the effectiveness of test sample was judged.

Puccinia recondita = settings: for Preventive value: wheat, compound alone
Sphaerotheca fuliginea = settings: for Preventive value: cucumber, compound alone
Experimental: Test plants (cucumber, variety: Sagami hanpaku) were seeded and grown until the one true leaf stage. D-Tagatose and fungicide were diluted to 5000 ppm and the concentrations listed in table 20, respectively, with distilled water and 10 ml of the dilution was sprayed thoroughly on the plants. Three days after spraying, a condia suspension containing of Sphaerotheca fuliginea were inoculated by spraying on test plants.
Seven days after inoculation the disease severity of the test plants was observed and the effectiveness of test sample was judged.

[3] = system: Erysiphe graminis f.sp. hordei; settings: for Preventive value: barley, compound alone
Experimental: Test plants (barley, variety: Akashinriki) were seeded and grown until the one leaf stage. D-tagatose and fungicide were diluted to 5000 ppm and the concentrations listed in table 21, respectively, with distilled water and 10 ml of the dilution was sprayed thoroughly on the plants. Three days after spraying, a condia suspension of Erysiphe graminis f.sp. hordei was inoculated by spraying on test plants. 7 days after inoculation the disease severity of the test plants was observed and the effectiveness of test sample was judged.

Botrytis cinerea = settings: for Preventive value: tomato, compound alone
Experimental: Test plants (tomato, variety: Ogata-fukujyu) were seeded and grown until the three leaf stage. D-Tagatose and fungicide were diluted to 10000 ppm and the concentrations liste in table 23, respectively, with distilled water and 10 ml of the dilution was sprayed on the plants. Three days after spraying the solution, condia suspension of Botrytis cinerea were inoculated by spraying on test plants and then put for 16 hours in an inoculation chamber (20° C. to 23° C.) to promote disease. Seven days after inoculation, the disease severity of the test plants was observed and the effectiveness of test sample was judged.

[4] = Botrytis cinerea, in Solanum lycopersicum, 168 h, read-out: Preventive value
[5] = Pseudoperonospora cubensis, in Cucumis sativus, 168 h, read-out: Preventive value
[6] = Puccinia recondita, in Triticum aestivum, 168 h, read-out: Preventive value
[7] = Phytophthora infestans, in Solanum lycopersicum, 168 h, read-out: Preventive value
[8] = Pythium aphanidermatum, in Cucumis sativus, soil, 336 h, read-out: Preventive value
[9] = Podosphaera fuliginea, in Cucumis sativus, 168 h, read-out: Preventive value
[10] = Blumeria graminis, in Hordeum vulgare, 168 h, read-out: Preventive value
[11] = Plasmopara viticola, 168 h, read-out: Preventive value

Q: `O=C(NCc1ncc(C(F)(F)F)cc1Cl)c1c(Cl)cccc1Cl` [fluopicolide] was tested. Which Preventive value ([1]; 10 ppm) did it give?
A: The Preventive value was 83.

Q: What about the Preventive value (Phytophthora infestans; 10 ppm) of the same compound?
A: Its Preventive value is 83.

Q: And the Preventive value (Pyricularia oryze; 250 ppm)?
A: The Preventive value was 0.

Q: And the Preventive value (Pythium aphanidermatum)?
A: The Preventive value was 83.

Q: What about the Preventive value ([2]; 10 ppm) of the same compound?
A: Its Preventive value is 83.

Q: What about the Preventive value (Plasmopara viticola; 10 ppm) of the same compound?
A: The Preventive value was 73.

Q: How did the Preventive value ([1]; 250 ppm) turn out when `CCO[PH](=O)O` [fosethyl] was run?
A: Its Preventive value is 0.

Q: And the Preventive value (Puccinia recondita; 250 ppm)?
A: Its Preventive value is 0.

Q: What about the Preventive value (Phytophthora infestans; 250 ppm) of the same compound?
A: Its Preventive value is 33.

Q: And the Preventive value (Pythium aphanidermatum)?
A: The Preventive value was 0.

Q: And the Preventive value ([2]; 250 ppm)?
A: Its Preventive value is 0.

Q: And the Preventive value (Sphaerotheca fuliginea; 250 ppm)?
A: Its Preventive value is 17.

Q: And the Preventive value ([3]; 250 ppm)?
A: Its Preventive value is 17.

Q: And the Preventive value (Plasmopara viticola; 250 ppm)?
A: The Preventive value was 0.

Q: With `O=C1OCc2c(Cl)c(Cl)c(Cl)c(Cl)c21` [fthalide] as the compound, how does the pest or weed control at 10 ppm (Pyricularia oryze) read?
A: The pest or weed control at 10 ppm was 50%.

Q: With `Cc1cc(O)no1` [hymexazol] as the compound, how does the pest or weed control at 250 ppm (Botrytis cinerea; [4]) read?
A: Its pest or weed control at 250 ppm is 0%.

Q: And the pest or weed control at 250 ppm [1, 5]?
A: The pest or weed control at 250 ppm was 0%.

Q: And the pest or weed control at 250 ppm (Puccinia recondita; [6])?
A: Its pest or weed control at 250 ppm is 0%.

Q: What about the pest or weed control at 250 ppm (Phytophthora infestans; [7]) of the same compound?
A: The pest or weed control at 250 ppm was 0%.

Q: What about the pest or weed control at 250 ppm (Pyricularia oryze) of the same compound?
A: The pest or weed control at 250 ppm was 33%.

Q: And the pest or weed control at 50 ppm (Pythium aphanidermatum; [8])?
A: Its pest or weed control at 50 ppm is 67%.

Q: What about the pest or weed control at 250 ppm [2, 5] of the same compound?
A: Its pest or weed control at 250 ppm is 0%.

Q: What about the pest or weed control at 250 ppm (Sphaerotheca fuliginea; [9]) of the same compound?
A: The pest or weed control at 250 ppm was 0%.

Q: And the pest or weed control at 250 ppm [3, 10]?
A: Its pest or weed control at 250 ppm is 0%.

Q: What about the pest or weed control at 250 ppm (Plasmopara viticola; [11]) of the same compound?
A: The pest or weed control at 250 ppm was 0%.

Q: With `CCCCCCCCCCCCc1ccc(S(=O)(=O)O)cc1.CCCCCCCCCCCCc1ccc(S(=O)(=O)O)cc1.CCCCCCCCCCCCc1ccc(S(=O)(=O)O)cc1.NC(N)=NCCCCCCCCNCCCCCCCCN=C(N)N` [iminoctadine albesilate] as the compound, how does the Preventive value (Botrytis cinerea; 10 ppm) read?
A: The Preventive value was 67.

Q: What about the Preventive value ([1]; 250 ppm) of the same compound?
A: Its Preventive value is 40.

Q: And the Preventive value (Puccinia recondita; 250 ppm)?
A: The Preventive value was 40.

Q: What about the Preventive value (Phytophthora infestans; 250 ppm) of the same compound?
A: The Preventive value was 0.

Q: What about the Preventive value (Pyricularia oryze; 250 ppm) of the same compound?
A: The Preventive value was 50.

Q: What about the Preventive value ([2]; 250 ppm) of the same compound?
A: The Preventive value was 0.

Q: And the Preventive value (Sphaerotheca fuliginea; 50 ppm)?
A: Its Preventive value is 83.

Q: And the Preventive value ([3]; 50 ppm)?
A: The Preventive value was 17.

Q: What about the Preventive value (Plasmopara viticola; 250 ppm) of the same compound?
A: Its Preventive value is 0.

Q: Which results are given for `CC(C)NC(=O)N1CC(=O)N(c2cc(Cl)cc(Cl)c2)C1=O` [iprodione]?
A: pest or weed control at 2 ppm (Botrytis cinerea; [4]): 40%; pest or weed control at 250 ppm (Puccinia recondita; [6]): 33%; pest or weed control at 250 ppm (Pyricularia oryze): 0%; pest or weed control at 250 ppm (Sphaerotheca fuliginea; [9]): 33%; pest or weed control at 250 ppm [3, 10]: 17%

Q: `C[C@H]1O[C@H](O[C@H]2[C@H](O)[C@@H](O)[C@@H](O)[C@H](O)[C@@H]2O)[C@@H](N)C[C@@H]1NC(=N)C(=O)O` [kasugamycin] was tested. Which Preventive value (Pyricularia oryze; 10 ppm) did it give?
A: The Preventive value was 73.

Q: What does the source list for `C#CCOc1ccc(CCNC(=O)C(OCC#C)c2ccc(Cl)cc2)cc1OC` (stereo not shown) [mandipropamid]?
A: Preventive value ([1]; 0.4 ppm): 67; Preventive value (Phytophthora infestans; 0.4 ppm): 73; Preventive value ([2]; 0.4 ppm): 40; Preventive value (Plasmopara viticola; 0.4 ppm): 73

Q: For `CCCOC(=O)NCCCN(C)C` [propamocarb hydrochloride], which pest or weed control at 250 ppm [1, 5] is on record?
A: The pest or weed control at 250 ppm was 67%.

Q: What about the pest or weed control at 250 ppm (Phytophthora infestans; [7]) of the same compound?
A: Its pest or weed control at 250 ppm is 67%.

Q: And the pest or weed control at 250 ppm (Pythium aphanidermatum; [8])?
A: The pest or weed control at 250 ppm was 0%.

Q: And the pest or weed control at 250 ppm [2, 5]?
A: Its pest or weed control at 250 ppm is 40%.

Q: What about the pest or weed control at 250 ppm (Plasmopara viticola; [11]) of the same compound?
A: The pest or weed control at 250 ppm was 33%.

Q: What does the source list for `Fc1ccc(Oc2ccnc3cc(Cl)cc(Cl)c23)cc1` [quinoxyfen]?
A: pest or weed control at 250 ppm (Botrytis cinerea; [4]): 0%; pest or weed control at 250 ppm (Puccinia recondita; [6]): 0%; pest or weed control at 2 ppm (Sphaerotheca fuliginea; [9]): 83%; pest or weed control at 2 ppm [3, 10]: 93%

Q: For `Cc1cccc2sc3nncn3c12` [tricyclazole], which pest or weed control at 10 ppm (Pyricularia oryze) is on record?
A: Its pest or weed control at 10 ppm is 50%.

Q: Which results are given for `CCCOC/C(=N\c1ccc(Cl)cc1C(F)(F)F)n1ccnc1` [triflumizole]?
A: pest or weed control at 50 ppm (Botrytis cinerea; [4]): 67%; pest or weed control at 2 ppm (Puccinia recondita; [6]): 40%; pest or weed control at 0.4 ppm (Sphaerotheca fuliginea; [9]): 97%; pest or weed control at 0.4 ppm [3, 10]: 50%

Q: For `OCC1=C[C@H](N[C@H]2C[C@H](CO)[C@@H](O[C@@H]3O[C@H](CO)[C@@H](O)[C@H](O)[C@H]3O)[C@H](O)[C@H]2O)[C@H](O)[C@@H](O)[C@@H]1O` [validamycin], which pest or weed control at 10 ppm (Pyricularia oryze) is on record?
A: The pest or weed control at 10 ppm was 50%.

Q: What does the source list for `CCC(C)(NC(=O)c1cc(Cl)c(C)c(Cl)c1)C(=O)CCl` (stereo not shown) [zoxamide]?
A: pest or weed control at 2 ppm [1, 5]: 67%; pest or weed control at 2 ppm (Phytophthora infestans; [7]): 50%; pest or weed control at 250 ppm (Pyricularia oryze): 0%; pest or weed control at 250 ppm (Pythium aphanidermatum; [8]): 0%; pest or weed control at 2 ppm [2, 5]: 33%; pest or weed control at 2 ppm (Plasmopara viticola; [11]): 83%

Q: Which results are given for manzeb?
A: Preventive value (Botrytis cinerea; 50 ppm): 40; Preventive value ([1]; 10 ppm): 90; Preventive value (Puccinia recondita; 50 ppm): 83; Preventive value (Phytophthora infestans; 10 ppm): 67; Preventive value ([2]; 10 ppm): 0; Preventive value (Sphaerotheca fuliginea; 50 ppm): 50; Preventive value ([3]; 50 ppm): 40; Preventive value (Plasmopara viticola; 10 ppm): 33
